# Compound: CC1(C)CCC(CN2CCN(c3ccc(C(=O)NS(=O)(=O)c4ccc(NCC5CCOCC5)c([N+](=O)[O-])c4)c(Oc4cnc5[nH]ccc5c4)c3)CC2)=C(c2ccc(Cl)cc2)C1 [Venetoclax] + Nc1ncn([C@H]2C[C@H](O)[C@@H](CO)O2)c(=O)n1 [Decitabine] (partner 2 µM)
# Experiment: relative viability (nuclei count vs DMSO), 5 days (fraction); higher = more cells survive
# Settings: first compound 0.01 µM
# Procedure, shortened: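 Lung cancer cell lines were pin-tool dosed in 1536-well plates on the day after seeding, with either a lone drug or a fixed anchor-drug dose plus five library-drug doses (not always all listed) in √10 steps. Nuclei were counted on 4× images after 5 days. Relative viability is the ratio of treated-well to vehicle-well nuclei counts, with each value a median of duplicate plates.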
row,Cell Line,relative viability
1,NCI-H23,0.322
2,EMC-BAC-2,0.983
3,NCI-H2126,0.579
4,HCC-44,0.938
5,NCI-H1734,0.464
6,NCI-H650,0.326
7,LK-2,0.204
8,NCI-H2342,0.777
9,SK-MES-1,0.305
10,NCI-H2170,0.442
11,A549,0.22
12,SW 900,0.455
13,NCI-H1395,0.71
14,NCI-H1793,0.301
15,NCI-H1944,0.478
16,ABC-1,1.07
17,NCI-H358,0.18

# Same assay, conditions: first compound 0.03162 µM
row,Cell Line,relative viability
1,NCI-H522,0.694
2,PC-14,0.164
3,NCI-H1666,0.783
4,NCI-H1755,0.754
5,NCI-H2023,0.23
6,EPLC-272H,0.378
7,LCLC-97TM1,0.236
8,PC-3 [JPC-3],0.788
9,LOU-NH91,0.808
10,NCI-H647,0.562
11,NCI-H23,0.298
12,EMC-BAC-2,0.989
13,NCI-H2126,0.616
14,HCC-44,0.919
15,NCI-H1734,0.515
16,NCI-H650,0.311
17,LK-2,0.359
18,NCI-H2342,0.735
19,SK-MES-1,0.428
20,NCI-H2170,0.46
21,A549,0.325
22,SW 900,0.444
23,NCI-H1648,0.487
24,NCI-H1395,0.673
25,NCI-H1793,0.58
26,NCI-H1944,0.447
27,ABC-1,1.24
28,NCI-H358,0.238

# Same assay, conditions: first compound 0.1 µM
row,Cell Line,relative viability
1,NCI-H522,0.617
2,PC-14,0.224
3,NCI-H1666,0.748
4,NCI-H1755,0.714
5,NCI-H2023,0.23
6,EPLC-272H,0.328
7,LCLC-97TM1,0.238
8,PC-3 [JPC-3],0.931
9,LOU-NH91,0.816
10,NCI-H647,0.461
11,NCI-H23,0.337
12,EMC-BAC-2,0.981
13,NCI-H2126,0.601
14,HCC-44,0.87
15,NCI-H1734,0.504
16,NCI-H650,0.326
17,LK-2,0.305
18,NCI-H2342,0.713
19,SK-MES-1,0.367
20,NCI-H2170,0.431
21,A549,0.159
22,SW 900,0.356
23,NCI-H1648,0.418
24,NCI-H1395,0.736
25,NCI-H1793,0.521
26,NCI-H1944,0.492
27,ABC-1,1.02
28,NCI-H358,0.226

# Same assay, conditions: first compound 0.3162 µM
row,Cell Line,relative viability
1,NCI-H522,0.605
2,PC-14,0.207
3,NCI-H1666,0.676
4,NCI-H1755,0.739
5,NCI-H2023,0.237
6,EPLC-272H,0.371
7,LCLC-97TM1,0.204
8,PC-3 [JPC-3],0.809
9,LOU-NH91,0.821
10,NCI-H647,0.424
11,NCI-H23,0.316
12,EMC-BAC-2,1.02
13,NCI-H2126,0.56
14,HCC-44,0.892
15,NCI-H1734,0.474
16,NCI-H650,0.31
17,LK-2,0.231
18,NCI-H2342,0.764
19,SK-MES-1,0.404
20,NCI-H2170,0.451
21,A549,0.214
22,SW 900,0.405
23,NCI-H1648,0.634
24,NCI-H1395,0.692
25,NCI-H1793,0.45
26,NCI-H1944,0.481
27,ABC-1,1.12
28,NCI-H358,0.208

# Same assay, conditions: first compound 1 µM
row,Cell Line,relative viability
1,NCI-H522,0.677
2,PC-14,0.213
3,NCI-H1666,0.741
4,NCI-H1755,0.713
5,NCI-H2023,0.234
6,EPLC-272H,0.445
7,LCLC-97TM1,0.222
8,PC-3 [JPC-3],0.805
9,LOU-NH91,0.778
10,NCI-H647,0.332
11,NCI-H23,0.317
12,EMC-BAC-2,0.956
13,NCI-H2126,0.548
14,HCC-44,0.949
15,NCI-H1734,0.493
16,NCI-H650,0.372
17,LK-2,0.294
18,NCI-H2342,0.693
19,SK-MES-1,0.391
20,NCI-H2170,0.473
21,A549,0.274
22,SW 900,0.39
23,NCI-H1648,0.491
24,NCI-H1395,0.63
25,NCI-H1793,0.49
26,NCI-H1944,0.407
27,ABC-1,1.24
28,NCI-H358,0.205

# Reference: the supplement of paper PMC10307832
